In US20240018115A1, “ALLOSTERIC CHROMENONE INHIBITORS OF PHOSPHOINOSITIDE 3-KINASE (PI3K) FOR THE TREATMENT OF DISEASE” (Petra Pharma Corporation, priority 2022, published 2024):

Target: T1, PI3K-Alpha kinase H1047R mutant (Homo sapiens, UniProt P42336, H1047R)
T1 construct: host or cells: MDA-MB-453
Assay: PI3K-Alpha Kinase (PIK3CA) Activity, H1047R Mutant In Vitro Cell Based Assay (MDA-MB-453 cells, AlphaLisa SureFire Ultra)
Settings: 0% FBS, 3 hours treatment, relative IC50
Procedure: PI3K-Alpha Kinase (PIK3CA) Activity, H1047R Mutant In Vitro Cell Based Assay and Determining IC50 Values for Inhibitors
The MDA-MB-453 (ATCC-HTB-131) cell line was obtained from the American Type Culture Collection (Manassas, VA). Cells were maintained in Dulbecco's Modified Eagle Media (DMEM, Gibco 11965-092) supplemented with 10% Fetal Bovine Serum, heat inactivated (FBS HI, Gibco 10082-147), 1× non-essential amino acids (NEAA, Gibco 11140-050), and 1 mM sodium pyruvate (Gibco 11360-070). Cultures were maintained in a humidified incubator at 37° C. under 5% CO2/95% air.
For compound testing in 0% FBS, MDA-MB-453 cells were seeded at a density of 1.5×10^4 cells per well in white 384-well plates in 20 μl of Minimum Essential Media (MEM) assay media with 1×NEAA, 1 mM sodium pyruvate, and 1 μg/mL human insulin (Sigma I9278). Compounds dissolved in 10 mM stock solutions in DMSO were serially diluted 1:3 in DMSO to generate a 10-point dilution series and plated using an acoustic liquid handler system (Echo 550 Series Liquid Handler, Labcyte). A 5× intermediate compound dilution plate in MEM with 1×NEAA and 1 mM sodium pyruvate (150 μM starting compound concentration in 1.5% DMSO) was then prepared. Five μl of the intermediate serially diluted compounds were added to the cell plate to final concentrations ranging from […] in 0.3% DMSO. 0.3% DMSO alone was used to establish the maximum (MAX) signal and GDC-0032 at a final concentration of 1 μM was used as a reference compound for the minimum (MIN) signal. After 3 hours treatment, the medium was removed, and the cells lysed in 10 μL of 1× SureFire Lysis buffer with shaking for 10 minutes at room temperature. The Acceptor Mix (Reaction Buffer 1+Reaction Buffer 2+Activation Buffer+SureFire Ultra Acceptor Beads) was prepared by diluting Activation buffer 25-fold in combined Reaction Buffer 1 and Reaction Buffer 2. The Acceptor beads were diluted 50-fold in the combined Reaction Buffers. Five μL of Acceptor Mix was added to each well, the plate was sealed and covered with foil and incubated for 1 hour at room temperature. The Donor Mix (dilution buffer+SureFire Ultra Donor Beads) was prepared by diluting Donor Beads 50-fold in dilution buffer. Five μL of the Donor Mix was added to each well and the plate sealed and covered with foil and incubated for 1 hour at room temperature in the dark. The plates were read on a Neo2 plate reader instrument from Biotek using standard AlphaLisa settings. Compounds were tested in duplicate and the average % inhibition at each compound concentration was used to generate a single dose response curve. The data were processed using the Genedata-Screener tool. Relative IC50 values were determined using luminescence units by calculating percent inhibition with respect to the in-plate “MIN” (GDC-0032 reference control) and “MAX” (DMSO) controls. The data was analyzed using a 4-parameter nonlinear logistic equation (four-parameter logistic concentration-response curve):
Y=bottom+[(top−bottom)/1+(X/IC50)slope]
where Y=% inhibition, X=concentration of inhibitor, bottom=minimum value of y attained by curve-fit, top=maximum value of y attained by curve-fit and slope=steepness of curve at the IC50.
% Inhibition=[(signal at X−median Min)/(median Max−median Min)]×100
IC50: concentration of compound that reduces a given response (ligand binding, enzyme response) by 50%. Relative IC50: concentration giving half the compound's maximum response.

T1 sequence (P42336 whole entry H1047R): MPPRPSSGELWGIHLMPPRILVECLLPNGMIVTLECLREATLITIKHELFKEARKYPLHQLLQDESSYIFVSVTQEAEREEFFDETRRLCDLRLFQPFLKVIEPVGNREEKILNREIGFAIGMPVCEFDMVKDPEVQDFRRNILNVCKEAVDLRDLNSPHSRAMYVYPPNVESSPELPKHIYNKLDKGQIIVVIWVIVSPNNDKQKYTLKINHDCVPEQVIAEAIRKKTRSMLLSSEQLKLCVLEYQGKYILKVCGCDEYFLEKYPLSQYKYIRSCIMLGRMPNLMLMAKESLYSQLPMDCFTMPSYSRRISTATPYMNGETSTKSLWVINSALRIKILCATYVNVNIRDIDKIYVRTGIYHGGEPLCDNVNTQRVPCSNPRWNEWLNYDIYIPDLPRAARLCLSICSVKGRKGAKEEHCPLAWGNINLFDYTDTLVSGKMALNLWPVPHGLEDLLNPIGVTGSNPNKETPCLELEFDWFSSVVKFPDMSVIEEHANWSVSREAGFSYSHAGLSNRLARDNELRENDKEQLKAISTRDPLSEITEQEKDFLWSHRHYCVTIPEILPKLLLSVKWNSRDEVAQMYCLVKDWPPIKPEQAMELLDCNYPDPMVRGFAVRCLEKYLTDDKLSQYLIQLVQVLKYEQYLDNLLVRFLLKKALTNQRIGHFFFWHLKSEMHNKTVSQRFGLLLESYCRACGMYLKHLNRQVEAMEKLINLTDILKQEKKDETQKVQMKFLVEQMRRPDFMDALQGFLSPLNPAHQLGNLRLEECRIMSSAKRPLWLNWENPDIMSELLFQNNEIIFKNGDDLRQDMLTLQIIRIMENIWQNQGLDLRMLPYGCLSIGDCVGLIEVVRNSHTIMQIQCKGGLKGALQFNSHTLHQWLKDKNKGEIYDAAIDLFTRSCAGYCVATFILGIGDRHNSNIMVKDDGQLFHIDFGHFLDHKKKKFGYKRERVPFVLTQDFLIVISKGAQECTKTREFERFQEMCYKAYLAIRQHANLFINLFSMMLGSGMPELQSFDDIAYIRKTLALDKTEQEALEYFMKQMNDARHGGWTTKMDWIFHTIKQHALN
T1 sequence (P27986 whole entry partner): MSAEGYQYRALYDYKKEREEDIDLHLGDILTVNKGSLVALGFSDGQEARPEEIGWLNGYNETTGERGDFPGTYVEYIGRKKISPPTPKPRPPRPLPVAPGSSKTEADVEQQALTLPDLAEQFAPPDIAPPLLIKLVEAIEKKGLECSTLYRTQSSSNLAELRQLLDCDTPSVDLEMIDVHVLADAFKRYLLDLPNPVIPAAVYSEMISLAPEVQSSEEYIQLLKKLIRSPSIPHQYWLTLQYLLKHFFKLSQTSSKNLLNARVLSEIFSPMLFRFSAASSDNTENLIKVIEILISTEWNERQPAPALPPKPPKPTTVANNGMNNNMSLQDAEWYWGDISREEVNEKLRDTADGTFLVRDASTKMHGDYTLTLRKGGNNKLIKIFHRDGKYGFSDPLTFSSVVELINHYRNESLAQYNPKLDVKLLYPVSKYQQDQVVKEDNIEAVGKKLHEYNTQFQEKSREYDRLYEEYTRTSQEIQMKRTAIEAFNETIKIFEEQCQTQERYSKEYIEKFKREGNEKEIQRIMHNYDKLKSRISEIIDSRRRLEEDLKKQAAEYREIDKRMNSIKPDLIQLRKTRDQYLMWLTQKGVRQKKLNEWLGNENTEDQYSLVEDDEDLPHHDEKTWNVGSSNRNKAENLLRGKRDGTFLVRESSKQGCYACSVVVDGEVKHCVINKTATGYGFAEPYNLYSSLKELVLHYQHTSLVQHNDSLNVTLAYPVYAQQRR

| IC50 [µM] | SMILES |
| --- | --- |
| < 0.5 | Cc1cc([C@@H](C)Nc2ccccc2C(=O)C=S(C)(C)=O)c2oc(-c3ccccc3)c(C)c(=O)c2c1 [Example 54C, 8-[(1R)-1-[2-[2-[Dimethyl(oxo)-lambda6-sulfanylidene]acetyl]anilino]ethyl]-3,6-dimethyl-2-phenyl-chromen-4-one] |
| < 0.5 | Cc1cc([C@@H](C)Nc2ccc(Cl)nc2)c2oc(-c3ccc(CN(C)C)cc3)c(C)c(=O)c2c1 [Example 22B, 8-[(1R)-1-[(6-Chloro-3-pyridyl)amino]ethyl]-2-[4-[(dimethylamino)methy1]phenyl]-3,6-dimethyl-chromen-4-one] |
| < 0.5 | Cc1cc(C(C)Nc2ccc(Cl)nc2-c2ccc(=O)[nH]c2)c2oc(-c3cccnc3)c(C)c(=O)c2c1 (single isomer, unassigned) [Example 222C, 5-[6-Chloro-3-[1-[3,6-dimethyl-4-oxo-2-(3-pyridyl)chromen-8-yl]ethylamino]-2-pyridyl]-1H-pyridin-2-one] |
| < 0.5 | CONS(=O)(=O)c1ccccc1N[C@H](C)c1cc(C)cc2c(=O)c(C)c(-c3ccccc3)oc12 [Example 129C, 2-[[(1R)-1-(3,6-Dimethyl-4-oxo-2-phenyl-chromen-8-yl)ethyl]amino]-N-methoxy-benzenesulfonamide] |
| < 0.5 | Cc1cc([C@@H](C)Nc2ccccc2-c2ccns2)c2oc(-c3cccnc3)c(C)c(=O)c2c1 [Example 74A, 8-[(1R)-1-(2-Isothiazol-5-ylanilino)ethyl]-3,6-dimethyl-2-(3-pyridyl)-chromen-4-one] |
| < 0.5 | Cc1cc([C@@H](C)Nc2ccccc2-c2nncn2C)c2oc(-c3ccccc3)c(C)c(=O)c2c1 [Example 66A, 3,6-Dimethyl-8-[(1R)-1-[2-(4-methyl-1,2,4-triazol-3-yl)anilino]ethyl]-2-phenyl-chromen-4-one] |
| < 0.5 | Cc1cc([C@@H](C)Nc2cccnc2-c2ncon2)c2oc(-c3ccccc3)c(C)c(=O)c2c1 [Example 53C, 3,6-Dimethyl-8-[(1R)-1-[[2-(1,2,4-oxadiazol-3-yl)-3-pyridyl]amino]ethyl]-2-phenyl-chromen-4-one] |
| < 0.5 | Cc1cc([C@@H](C)Nc2cccnc2N(C)C)c2oc(-c3cccnc3)c(C)c(=O)c2c1 [Example 168C, 8-[(1R)-1-[[2-(Dimethylamino)-3-pyridyl]amino]ethyl]-3,6-dimethyl-2-(3-pyridyl)chromen-4-one] |
| < 0.5 | CNC(=O)c1ccccc1N[C@H](C)c1cc(C)cc2c(=O)c(C)c(-c3cccc(F)c3)oc12 [Example 86A, 2-[[(1R)-1-[2-(3-Fluorophenyl)-3,6-dimethyl-4-oxo-chromen-8-yl]ethyl]amino]-N-methyl-benzamide] |
| < 0.5 | Cc1cc([C@@H](C)Nc2ccc(Cl)nc2S(C)(=O)=O)c2oc(-c3ccccc3)c(C)c(=O)c2c1 [Example 80B, 8-[(1R)-1-[(6-Chloro-2-methylsulfonyl-3-pyridyl)amino]ethyl]-3,6-dimethyl-2-phenyl-chromen-4-one] |
| < 0.5 | Cc1cc([C@@H](C)Nc2cccnc2-c2n[nH]c(=O)[nH]2)c2oc(-c3ccccc3)c(C)c(=O)c2c1 [Example 63A, 3-[3-[[(1R)-1-(3,6-Dimethyl-4-oxo-2-phenyl-chromen-8-yl)ethyl]amino]-2-pyridyl]-1,4-dihydro-1,2,4-triazol-5-one] |
| < 0.5 | Cc1cc([C@@H](C)Nc2cccnc2C(=O)NCC(C)(C)O)c2oc(-c3ccccc3)c(C)c(=O)c2c1 [Example 177A, 3-[[(1R)-1-(3,6-Dimethyl-4-oxo-2-phenyl-chromen-8-yl)ethyl]amino]-N-(2-hydroxy-2-methyl-propyl)pyridine-2-carboxamide] |
| < 0.5 | Cc1cc([C@@H](C)Nc2ccc(Cl)nc2S(N)(=O)=O)c2oc(-c3ccccc3)c(-c3cnoc3)c(=O)c2c1 [Example 132C] |
| < 0.5 | CNC(=O)c1ccccc1N[C@H](C)c1cc(C)cc2c(=O)c(C)c(-c3ccc4nn(C)cc4c3)oc12 [Example 84A] |
| < 1 | Cc1cc(C(C)Nc2cccc3c2C(=O)C(=O)N3)c2oc(-c3ccccc3)c(C)c(=O)c2c1 (single isomer, unassigned) [Example 27A] |
| < 0.5 | Cc1cc([C@@H](C)Nc2ccc(Cl)nc2C(=O)NS(N)(=O)=O)c2oc(-c3ccccc3)c(C)c(=O)c2c1 [Example 130C, 6-Chloro-3-[[(1R)-1-(3,6-dimethyl-4-oxo-2-phenyl-chromen-8-yl)ethyl]amino]-N-sulfamoyl-pyridine-2-carboxamide] |
| < 0.5 | Cc1cc([C@@H](C)Nc2ccc(Cl)nc2S(N)(=O)=O)c2oc(-c3ccc(=O)n(C(C)C)c3)c(C)c(=O)c2c1 [Example 133C] |
